These results are taken from patent US9044474B2, “Compositions and methods for increasing drug efficacy in cancer” (The Ohio State University, priority 2010, dated 2015).

Counter-ions that a name gives are not always drawn.

For assay [1], the system named is CLL cells. The experiment in a line: LC3 confocal immunofluorescence (autophagosome formation) in CLL cells in vitro. The following applies: for LC3 aggregation / LC3 fluorescence (autophagosome formation) versus vehicle: CLL patient cells, 4 hours, rapamycin 5 μM, thapsigargin 1 μM, F-ara-A 5 μM, chlorambucil 20 μM, CAL-101 1 μM, rituximab 10 μg/ml, flavopiridol 2 μM, CQ 0.5 μM. In kind it is cell-based, human. As to the method:
After 4 hours exposure to agents, cells were washed in phosphate-buffered saline (PBS) and made adherent on a microscope slide by centrifugation in a Cytospin3 (Shandon) centrifuge. Immediately after cytospin, cells were fixed in cold acetone. […] Nuclei were stained blue with DAPI (Vector Laboratories, Burlingame, Calif.). Images were taken using a 60× objective and 4× digital zoom with Olympus Fluoview 1000 Laser Scanning Confocal microscope at the Ohio State University Campus Microscopy and Imaging Facility. ATF6 antibody was purchased from LifeSpan Biosciences (Seattle, Wash.) and Nrf2 was from Santa Cruz Biotechnology (Santa Cruz, Calif.). Nuclei were evaluated for ATF6 and Nrf2 using confocal microscopy to collect Z stacks, approximately 45 slices per cell, 0.2 μm each.
LC3 intensity and number of dots per cell were both assessed in the fluorescence images. Integrated intensity was measured using Metamorph v.7.0. To calculate the number of “dots” (local extreme point in pixel-intensity profile at which a number of high-intensity pixels form a cluster), a Gaussian filter was first applied to reduce noise. Cells were enumerated electronically by an improved watershed-based algorithm. To quantify co-localization, two binary nuclei images—red (R) and green (G)—are obtained. The correlation value is calculated as the number of white pixels of (R&G) divided by the number of pixels of (RIG), where (R&G) is the intersection of R and G, and (RIG) is the union of R and G. The program used for cell counts and measurement of correlation index is based on MatLab software (Natick, Mass.) and it was developed by members of Department of Biomedical Informatics, The Ohio State University.

Assay [2] has as its system CLL cells. The experiment in a line: LC3 fluorescence in CLL cells from patients treated with flavopiridol in clinic. In kind it is in vivo, human. How it is done: In this trial, CLL cells were collected pre- and post-therapy 4.5 hours, day 1 (n=16). By confocal fluorescence microscopy, both increased autophagosome formation (P=0.0011) and fusion with lysosomes is observed (FIG. 3F). […] The level of autophagy, as assessed by LC3 fluorescence intensity, was overall greater in non-responders versus responders in both pre- and post-treatment samples (P=0.018); however, the increase in intensity at 4.5 hours post- vs. pre-treatment was only slightly higher for non-responders compared to responders (fold change of 2.51 vs. 1.82, P=0.3445). […] Collectively, these studies provide evidence that our in vitro observations are relevant to the clinical setting.
(§1) After 4 hours exposure to agents, cells were washed in phosphate-buffered saline (PBS) and made adherent on a microscope slide by centrifugation in a Cytospin3 (Shandon) centrifuge. Immediately after cytospin, cells were fixed in cold acetone. Next, the cells were incubated in blocking solution (2% bovine serum albumin in PBS) and stained for LC3 (Cell Signaling, Boston, Mass.)) and Lamp2 (Santa Cruz Biotechnology, Santa Cruz, Calif.) by incubating separately with the respective primary antibodies over night, in 4° C., followed by incubation with fluorescent secondary antibodies (Invitrogen, Carlsbad, Calif.): Alexa fluor 594 (red) anti-rabbit for LC3 and Alexa fluor 488 (green) anti-mouse for Lamp2. Nuclei were stained blue with DAPI (Vector Laboratories, Burlingame, Calif.). Images were taken using a 60× objective and 4× digital zoom with Olympus Fluoview 1000 Laser Scanning Confocal microscope at the Ohio State University Campus Microscopy and Imaging Facility. ATF6 antibody was purchased from LifeSpan Biosciences (Seattle, Wash.) and Nrf2 was from Santa Cruz Biotechnology (Santa Cruz, Calif.). Nuclei were evaluated for ATF6 and Nrf2 using confocal microscopy to collect Z stacks, approximately 45 slices per cell, 0.2 μm each.
LC3 intensity and number of dots per cell were both assessed in the fluorescence images. Integrated intensity was measured using Metamorph v.7.0. […] To quantify co-localization, two binary nuclei images—red (R) and green (G)—are obtained. The correlation value is calculated as the number of white pixels of (R&G) divided by the number of pixels of (RIG), where (R&G) is the intersection of R and G, and (RIG) is the union of R and G. The program used for cell counts and measurement of correlation index is based on MatLab software (Natick, Mass.) and it was developed by members of Department of Biomedical Informatics, The Ohio State University.
For the quantification of LC3 fluorescence in serial samples (in vivo data), CLL patients were classified as either “no response” (N=10) or “partial response” (N=6). […]

In assay [3] the test system is p62. The experiment in a line: p62 immunoblot in CLL cells treated in vitro. In kind it is cell-based, human. As to conditions: flavopiridol 2 μM, 4 hours. How it is done: (§2) Proteins extracted from whole cell lysates (50 μg/lane) were separated on polyacrylamide gels and transferred on nitrocellulose membrane. Antibodies used for immunoblots included LC3, IRE1α, TRAF2, PI3K III, ATG4C, ATG5-12, UVRAG, Beclin-1 (Cell Signaling, Boston, Mass.), GAPDH, Nrf2, ASK1, ULK1 (Santa Cruz Biotechnology), and Bif-1, ATG14-Barkor (Sigma-Aldrich, St Louis, Mo.). Species-appropriate secondary antibodies were obtained from BioRad Laboratories (Hercules, Calif.). Following antibody incubations, proteins were detected using a chemiluminescent substrate (BioRad Laboratories). For co-immunoprecipitations, TrueBlot beads (eBiosciences, San Diego, Calif.) and One-hour IP Western kit (GenScript, Piscataway, N.J.) were used according to manufacturer protocols. Quantification was done using FluorChem Q (Alpha Innotech, San Leandro Calif.).
On the technique in general: In western blotting, separated proteins are transferred to a membrane and probed.

Assay [4] deals with PERK. In words: PERK activity by eIF2α phosphorylation immunoblot in CLL cells. In kind it is cell-based, human. How it is done:
as §2

In assay [5] the test system is Jurkat cell line. The experiment in a line: eIF2α phosphorylation immunoblot in cell lines (control). In kind it is cell-based. As to the method: as §2
The subject of assay [6] is IRE1. The experiment in a line: XBP1 splicing (IRE1 activity) PCR in CLL cells. In kind it is cell-based, human. As to the method:
(§3) RNA was extracted using TRIzol reagent (Invitrogen, Carlsbad, Calif.) and purified using QIAGEN RNeasy columns (Qiagen, Valencia, Calif.). cDNA was prepared with SuperScript First-Strand Synthesis System (Invitrogen). Real-time PCR was performed using primers purchased from Applied Biosystems. Detection was performed using an ABI Prism 7700 sequence detection system (Applied Biosystems). Average relative expression (treatment compared with vehicle) was normalized to the internal control gene CD52. Primers to detect spliced XBP1 were designed using Primer 3 software and purchased from IDT. Samples were analyzed on 10% acrylamide gels.

In assay [7] the test system is cell lines 293T, RAW and 697, normal B cells. In words: XBP1 splicing PCR in normal B cells and cell lines. In kind it is cell-based. As to the method: as §3
For assay [8], the system named is ATF6. In words: ATF6 nuclear translocation by confocal fluorescence microscopy in CLL cells. In kind it is cell-based, human. The following applies: CLL patient cells, flavopiridol 2 μM or thapsigargin 1 μM, 4 hours. How it is done: as §1
Assay [9] concerns IRE1-ASK1-TRAF2 complex. The experiment in a line: Co-immunoprecipitation of IRE1-ASK1-TRAF2 complex in 697 cells. In kind it is cell-based. As to the method: as §2
In assay [10] the test system is IRE1-ASK1-TRAF2 complex. In words: Co-immunoprecipitation of IRE1-ASK1-TRAF2 complex in samples from flavopiridol-treated CLL patients. As to conditions: CLL patient cells in vivo following flavopiridol infusion. The arrangement: species or system human. How it is done: as §2
The test system of assay [11] is JNK1 and p38MAPK. The experiment in a line: Immunoblot of phosphorylated JNK1 and p38MAPK in CLL cells in vitro. In kind it is cell-based, human. As to conditions: flavopiridol 2 μM, thapsigargin 1 μM, F-ara-A 5 μM. As to the method: as §2
The test system of assay [12] is JNK1 and p38MAPK. The experiment in a line: Immunoblot of phosphorylated JNK1 and p38MAPK in samples from CLL patients treated with flavopiridol. In kind it is in vivo, human. As to conditions: samples 4.5 hours following flavopiridol infusion. How it is done:
as §2

Consider `CN1CC[C@H](c2c(O)cc(O)c3c(=O)cc(-c4ccccc4Cl)oc23)[C@H](O)C1` [flavopiridol, (cis-5,7-dihydroxy-2-(2-chlorophenyl)-8-[4-(3-hydroxy-1-methyl)-piperidin-yl]-1-benzopyran-4-one)hydrochloride], for which, in [1] (CLL cells n=3, flavopiridol washed out after 4 hours), the “LC3 fluorescence time course, flavopiridol vs vehicle” value is “significant (P=0.001) at 3, 4 and 8 hours, and decreased to levels comparable to vehicle alone at 12 and 24 hours”. Further, the “LC3 aggregation / LC3 fluorescence (autophagosome formation) versus vehicle” value in assay [1] was “formation of autophagosomes was observed”; in [1] (listed as Flavopiridol) it was “comparable to the increase seen with rapamycin”. The “average increase in LC3 integrated intensity at 4.5 hours after flavopiridol infusion versus pretreatment” value in [2] (CLL patients n=16, all) came out at 2.16 fold. Moreover, in [2] (non-responders (N=10)), the “fold change of LC3 intensity 4.5 hours vs pre-treatment, non-responders” value came out at 2.51 fold. Besides, the “overall LC3 intensity, non-responders compared to responders” value in assay [2] (pre- and post-treatment samples, 95% CI 1.07, 1.95) worked out at 1.44 times. The “fold change of LC3 intensity 4.5 hours vs pre-treatment, responders” value in assay [2] (responders (N=6)) was found to be 1.82 fold. In addition, the p62 protein level entry in assay [3] is reported as “p62 levels are decreased”. The “PERK activity (phosphorylation of eIF2α)” value in assay [4] is reported as “minimally active”. Further, the eIF2α phosphorylation result in [5] is “dramatic EIF2α phosphorylation”. Moreover, the “IRE1 activity (splicing of IRE1 substrate XBP1)” value in [6] (CLL cells) is “no evidence of IRE1 activity”. Besides, the “CLL samples with deficiency in XBP1 splicing” value in assay [6] (CLL samples tested) is on record as 8 of 10. The XBP1 splicing entry in assay [7] was “XBP1 splicing is detected”. For the same compound, in assay [8], the ATF6 nuclear translocation entry is “increased nuclear translocation”. The “ASK1 and IRE1 protein in TRAF2 co-immunoprecipitates” value in assay [9] was “increased levels of ASK1 and IRE1 protein in TRAF2 co-immunoprecipitates”. Moreover, the “IRE1 and ASK1 association with TRAF2” value in assay [10] was “increase in IRE1 and ASK1 association with TRAF2”. Also, the “phosphorylation of JNK1 and p38MAPK” value in assay [11] was “induced the phosphorylation of both JNK1 and p38MAPK”. Also, the “CLL patients with JNK1 and p38MAPK phosphorylation” value in [12] is “five of ten”.
